Assay results published in PMC11650735, “Challenging Reported Frizzled-Targeting Compounds in Selective Assays Reveals Lack of Functional Inhibition and Claimed Profiles” (ACS Pharmacology & Translational Science, 2024).

Test system: individually reexpressed FZDs (1,2,4,5,7,8, and 10)
Test: TopFlash in ΔFZD1–10 HEK293T, panel of individually reexpressed FZDs, Wnt3a-stimulated (collective statements)
Settings: compared with pcDNA+CHIR99021

O=C(/C=C/c1ccc2c(c1)OCO2)Nc1ccc(-n2cnc3ccccc32)cc1 [SRI35959]
FZDs whose reintroduction reduces the compound's potency: FZD1,4, and 7

NC(=O)N1c2ccccc2C=Cc2ccccc21 [carbamazepine]
FZDs whose reintroduction reduces the compound's potency: FZD5 and FZD8
